Test results: patent US8754075B2, “1,3-oxazines as BACE1 and/or BACE2 inhibitors” (Hoffmann-La Roche Inc., priority 2011, dated 2014)

Columns and labels:
[1] = target: BACE1 (Homo sapiens (Human), UniProt P56817); experiment: Cellular Aβ-lowering assay; type: cell-based; conditions: HEK293 cells stably expressing human APP wt (APP695); Aβ40 in supernatant by ELISA after 18-20 hrs
Method: Cellular Aβ-Lowering Assay: Human HEK293 cells which are stably transfected with a vector expressing a cDNA of the human APP wt gene (APP695) were used to assess the potency of the compounds in a cellular assay. The cells were seeded in 96-well microtiter plates in cell culture medium (Iscove, plus 10% (v/v) fetal bovine serum, glutamine, penicillin/streptomycin) to about 80% confluence and the compounds were added at a 10× concentration in 1/10 volume of medium without FCS containing 8% DMSO (final concentration of DMSO was kept at 0.8% v/v). After 18-20 hrs incubation at 37° C. and 5% CO2 in a humidified incubator the culture supernatant was harvested for the determination of Aβ40 concentrations. […] After blocking of non-specific binding sites with e.g. 1% BSA and washing, the culture supernatants were added in suitable dilutions together with a horseradish peroxidase-coupled Aβ detection antibody (e.g., antibody 4G8, Senetek, Maryland Heights, Mo.) and incubated for 5 to 7 hrs. Subsequently the wells of the microtiter plate were washed extensively with Tris-buffered saline containing 0.05% Tween 20 and the assay was developed with tetramethylbenzidine/H2O2 in citric acid buffer. After stopping the reaction with one volume […] the reaction was measured in an ELISA reader at 450 nm wavelength. The concentrations of Aβ in the culture supernatants were calculated from a standard curve obtained with known amounts of pure Aβ peptide.

[2] = target: BACE2 (Rattus norvegicus (Rat), UniProt Q6IE75); experiment: Assay for BACE inhibition by measuring cellular TMEM27 cleavage; type: cell-based; conditions: INS-TMEM27 (INS1e rat cell line, inducible hTMEM27); shed TMEM27 by ELISA
Sequence of BACE2 (Q6IE75 63-514): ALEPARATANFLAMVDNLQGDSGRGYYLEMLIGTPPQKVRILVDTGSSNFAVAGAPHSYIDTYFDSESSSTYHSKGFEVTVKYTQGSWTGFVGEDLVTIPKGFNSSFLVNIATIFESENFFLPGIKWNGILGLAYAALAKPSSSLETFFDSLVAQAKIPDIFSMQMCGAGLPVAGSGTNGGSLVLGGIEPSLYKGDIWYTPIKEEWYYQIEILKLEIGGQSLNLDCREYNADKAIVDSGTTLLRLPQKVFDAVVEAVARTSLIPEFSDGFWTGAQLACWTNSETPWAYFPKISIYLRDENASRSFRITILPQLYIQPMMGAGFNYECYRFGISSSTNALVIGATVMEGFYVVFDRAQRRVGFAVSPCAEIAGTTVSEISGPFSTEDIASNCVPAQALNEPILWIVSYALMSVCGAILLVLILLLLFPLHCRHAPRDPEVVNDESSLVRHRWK
Description: Assay for BACE Inhibition by Measuring Cellular TMEM27 Cleavage:
The assay uses the principle of inhibition of human TMEM27 cleavage by endogenous cellular BACE2 in the Ins1e rat cell line and shedding from the cell surface into the culture medium, followed by detection in an ELISA assay Inhibition of BACE2 prevents the cleavage and shedding in a dose-dependent manner.
The stable cell line “INS-TMEM27” represents an INS1e-derived cell line with inducible expression (using the TetOn system) of full-length hTMEM27 in a doxycycline-dependent manner. The cells are cultured throughout the experiment in RPMI1640+Glutamax (Invitrogen) Penicillin/Streptomycin, 10% Fetal bovine serum, […], […], 100 micrograms/ml G418 and 100 microgram/ml hygromycin and are grown inadherent culture at 37° C. in a standard CO2 cell culture incubator.
INS-TMEM27 cells are seeded in 96-well plates. After 2 days in culture, BACE2 inhibitor is added in a range of concentrations as required by the assay and after a further two hours, doxycycline is added to a final concentration of 500 ng/ml. The cells are incubated for a further 46 hours and the supernatant harvested for detection of shed TMEM27.
An ELISA assay (using a pair of mouse anti-human-TMEM27 antibodies, raised against the extracellular domain of TMEM27) is used for detection of TMEM27 in the culture medium. An EC50 for BACE2 inhibition is calculated using the ELISA readout for each inhibitor concentration with standard curve-fitting software such as XLFit for the Excel spreadsheet program.

Sequence of BACE1 (P56817 46-501): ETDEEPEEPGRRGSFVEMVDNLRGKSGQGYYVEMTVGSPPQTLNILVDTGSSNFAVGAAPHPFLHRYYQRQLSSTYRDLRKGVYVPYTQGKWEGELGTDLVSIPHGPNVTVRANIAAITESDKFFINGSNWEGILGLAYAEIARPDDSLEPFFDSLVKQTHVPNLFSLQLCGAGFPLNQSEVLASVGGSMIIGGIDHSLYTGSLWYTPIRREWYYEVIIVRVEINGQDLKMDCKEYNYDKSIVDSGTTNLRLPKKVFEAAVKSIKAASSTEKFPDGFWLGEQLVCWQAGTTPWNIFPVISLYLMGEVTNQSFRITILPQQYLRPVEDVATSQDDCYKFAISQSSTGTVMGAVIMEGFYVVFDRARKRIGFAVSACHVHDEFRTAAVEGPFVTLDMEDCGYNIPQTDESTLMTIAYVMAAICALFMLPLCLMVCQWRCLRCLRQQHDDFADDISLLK

C[C@]1(F)COC(N)=N[C@]1(C)c1cc(NC(=O)c2ccc(Cl)cn2)ccc1F [Example 41, 5-Chloro-pyridine-2-carboxylic acid [3-((4R,5R)-2-amino-5-fluoro-4,5-dimethyl-5,6-dihydro-4H-[1,3]oxazin-4-yl)-4-fluoro-phenyl]-amide]
IC50 [1]: 3 nM
IC50 [2]: 6 nM

Cn1nc(C(F)(F)F)cc1C(=O)Nc1ccc(F)c([C@@]2(C)N=C(N)OC[C@@H]2F)c1 [Example 27, 2-Methyl-5-trifluoromethyl-2H-pyrazole-3-carboxylic acid [3-((4R,5R)-2-amino-5-fluoro-4-methyl-5,6-dihydro-4H-[1,3]oxazin-4-yl)-4-fluoro-phenyl]-amide]
IC50 [1]: 90 nM
IC50 [2]: 709 nM

C[C@]1(c2cc(NC(=O)c3cnc(OCC4CC4)cn3)ccc2F)N=C(N)OC[C@@H]1F [Example 16, 5-Cyclopropylmethoxy-pyrazine-2-carboxylic acid [3-((4R,5R)-2-amino-5-fluoro-4-methyl-5,6-dihydro-4H-[1,3]oxazin-4-yl)-4-fluoro-phenyl]-amide]
IC50 [1]: 5 nM
IC50 [2]: 590 nM

C[C@]1(F)COC(N)=N[C@]1(C)c1cc(NC(=O)c2ncccc2OCC(F)(F)F)ccc1F [Example 37, 3-(2,2,2-Trifluoro-ethoxy)-pyridine-2-carboxylic acid [3-((4R,5R)-2-amino-5-fluoro-4,5-dimethyl-5,6-dihydro-4H-[1,3]oxazin-4-yl)-4-fluoro-phenyl]-amide]
IC50 [1]: 22 nM
IC50 [2]: 226 nM

C[C@]1(c2cc(NC(=O)c3ncc(C#N)cc3Cl)ccc2F)N=C(N)OC[C@H]1F [Example 35, 3-Chloro-5-cyano-pyridine-2-carboxylic acid [3-((4R,5S)-2-amino-5-fluoro-4-methyl-5,6-dihydro-4H-[1,3]oxazin-4-yl)-4-fluoro-phenyl]-amide]
IC50 [1]: 82 nM
IC50 [2]: 511 nM

C[C@]1(c2cc(NC(=O)c3ccc(C#N)cn3)ccc2F)N=C(N)OC[C@@H]1OCC(F)(F)F [Example 47, 5-Cyano-pyridine-2-carboxylic acid {3-[(4R,5R)-2-amino-4-methyl-5-(2,2,2-trifluoro-ethoxy)-5,6-dihydro-4H-[1,3]oxazin-4-yl]-4-fluoro-phenyl}-amide]
IC50 [1]: 1 nM
IC50 [2]: 268 nM

C[C@]1(c2cc(NC(=O)c3cnc(Cl)s3)ccc2F)N=C(N)OC[C@@H]1F [Example 26, 2-Chloro-thiazole-5-carboxylic acid [3-((4R,5R)-2-amino-5-fluoro-4-methyl-5,6-dihydro-4H-[1,3]oxazin-4-yl)-4-fluoro-phenyl]-amide]
IC50 [1]: 81 nM
IC50 [2]: 1400 nM

C[C@]1(c2cc(NC(=O)c3ncc(Cl)cc3Cl)ccc2F)N=C(N)OC[C@@H]1F [Example 2, 3,5-Dichloro-pyridine-2-carboxylic acid [3-((4R,5R)-2-amino-5-fluoro-4-methyl-5,6-dihydro-4H-[1,3]oxazin-4-yl)-4-fluoro-phenyl]-amide]
IC50 [1]: 0.6 nM
IC50 [2]: 8 nM

C[C@]1(F)COC(N)=N[C@]1(C)c1cc(NC(=O)c2nn(C(F)F)cc2Cl)ccc1F [Example 40, 4-Chloro-1-difluoromethyl-1H-pyrazole-3-carboxylic acid [3-((4R,5R)-2-amino-5-fluoro-4,5-dimethyl-5,6-dihydro-4H-[1,3]oxazin-4-yl)-4-fluoro-phenyl]amide]
IC50 [1]: 2 nM
IC50 [2]: 31 nM

C[C@]1(c2cc(NC(=O)c3ccc(C4CC4)cn3)ccc2F)N=C(N)OC[C@@H]1F [Example 22, 5-Cyclopropyl-pyridine-2-carboxylic acid [3-((4R,5R)-2-amino-5-fluoro-4-methyl-5,6-dihydro-4H-[1,3]oxazin-4-yl)-4-fluoro-phenyl]-amide]
IC50 [1]: 14 nM
IC50 [2]: 124 nM

C[C@]1(c2cc(NC(=O)c3ccc(C(F)F)cn3)ccc2F)N=C(N)OC[C@@H]1F [Example 11, 5-Difluoromethyl-pyridine-2-carboxylic acid [3-((4R,5R)-2-amino-5-fluoro-4-methyl-5,6-dihydro-4H-[1,3]oxazin-4-yl)-4-fluoro-phenyl]-amide]
IC50 [1]: 3 nM
IC50 [2]: 1 nM

C[C@]1(c2cc(NC(=O)c3ncc(C(F)(F)F)cc3Cl)ccc2F)N=C(N)OC[C@@H]1F [Example 9, 3-Chloro-5-trifluoromethyl-pyridine-2-carboxylic acid [3-((4R,5R)-2-amino-5-fluoro-4-methyl-5,6-dihydro-4H-[1,3]oxazin-4-yl)-4-fluoro-phenyl]-amide]
IC50 [1]: 2 nM
IC50 [2]: 124 nM

C[C@]1(c2cc(NC(=O)c3ccc(F)cn3)ccc2F)N=C(N)OC[C@@H]1OCC(F)(F)F [Example 46, 5-Fluoro-pyridine-2-carboxylic acid {3-[(4R,5R)-2-amino-4-methyl-5-(2,2,2-trifluoro-ethoxy)-5,6-dihydro-4H-[1,3]oxazin-4-yl]-4-fluoro-phenyl}-amide]
IC50 [1]: 2 nM
IC50 [2]: 65 nM

C[C@]1(c2cc(NC(=O)c3ncc(Cl)cc3F)ccc2F)N=C(N)OC[C@@H]1F [Example 8, 5-Chloro-3-fluoro-pyridine-2-carboxylic acid [3-((4R,5R)-2-amino-5-fluoro-4-methyl-5,6-dihydro-4H-[1,3]oxazin-4-yl)-4-fluoro-phenyl]-amide]
IC50 [1]: 2 nM
IC50 [2]: 6 nM

C[C@]1(c2cc(NC(=O)c3ccc(C#CC4CC4)cn3)ccc2F)N=C(N)OC[C@@H]1F [Example 14, 5-Cyclopropylethynyl-pyridine-2-carboxylic acid [3-((4R,5R)-2-amino-5-fluoro-4-methyl-5,6-dihydro-4H-[1,3]oxazin-4-yl)-4-fluoro-phenyl]-amide]
IC50 [1]: 4 nM
IC50 [2]: 9 nM

C[C@]1(c2cc(NC(=O)c3n[nH]cc3Cl)ccc2F)N=C(N)OC[C@@H]1F [Example 28, 4-Chloro-1H-pyrazole-3-carboxylic acid [3-((4R,5R)-2-amino-5-fluoro-4-methyl-5,6-dihydro-4H-[1,3]oxazin-4-yl)-4-fluoro-phenyl]-amide]
IC50 [1]: 130 nM
IC50 [2]: 35 nM
